According to patent publication US10570152B2, “Antibacterial therapeutics and prophylactics” (VYOME BIOSCIENCES PVT. LTD., priority 2015, dated 2020):
≈ marks a conversion by molar mass, not a printed value. Like-named read-outs stand apart in the source and are kept apart here.

Columns and labels:
S. aureus CCARM 3505 = test: MIC by micro broth dilution; format: cell-based; conditions: Staphylococcus aureus, CCARM3505, read-out: Minimum inhibitory concentration (MIC)
Method: (§1) MIC of DART molecules were determined by micro broth dilution as per CLSI guidelines. Bacterial strains were cultured in Brain Heart Infusion Agar (BHIA) at 37° C. for 24 h. For MIC determination, BHI broth (100 μl) was added to each of the wells of a 96 well plate. 100 μl of broth containing drug was added to the first well (1A to 1H) and thereafter serial (double) dilutions were carried out for up to 10 wells (column 1 to column 10 of the 96 well plate). Bacterial inoculum was prepared by adjusting the bacterial culture turbidity to 0.5 McFarland standard (approximately 1.5×10^8 cells/ml) and further diluted (100 times with sterile BHI broth). Diluted bacterial suspension (100 μl) was added to each well except sterility control wells (column 12 of 96 well plate). The plates were incubated at 37° C. for 24 h. The MIC of the test compound was measured after addition of Alamar blue dye.

P. aeruginosa CCARM 2161 = test: MIC by micro broth dilution; format: cell-based; conditions: Pseudomonas aeruginosa, CCARM2161, read-out: Minimum inhibitory concentration (MIC)
Method: as §1

A. baumannii CCARM 12020 = test: MIC by micro broth dilution; format: cell-based; conditions: Acinetobacter baumannii, CCARM12020, read-out: Minimum inhibitory concentration (MIC)
Method: as §1

E. aerogenes NCIM 5139 = test: MIC by micro broth dilution; format: cell-based; conditions: Klebsiella aerogenes, NCIM5139, read-out: Minimum inhibitory concentration (MIC)
Method: as §1

P. aeruginosa ATCC 27853 = test: MIC by micro broth dilution; format: cell-based; conditions: Pseudomonas aeruginosa, ATCC27853, read-out: Minimum inhibitory concentration (MIC)
Method: as §1

S. aureus MTCC 6908 = test: MIC by micro broth dilution; format: cell-based; conditions: Staphylococcus aureus, MTCC6908, read-out: Minimum inhibitory concentration (MIC)
Method: as §1

A. baumannii ATCC 1906 = test: MIC by micro broth dilution; format: cell-based; conditions: Acinetobacter baumannii, ATCC1906, read-out: Minimum inhibitory concentration (MIC)
Method: as §1

A. baumannii CCARM 12001 = test: MIC by micro broth dilution; format: cell-based; conditions: Acinetobacter baumannii, CCARM12001, read-out: Minimum inhibitory concentration (MIC)
Method: as §1

S. epidermidis S12-1 = test: MIC by micro broth dilution; format: cell-based; conditions: Staphylococcus epidermidis, S121, read-out: Minimum inhibitory concentration (MIC)
Method: as §1

S. aureus ATCC 43300 = test: MIC by micro broth dilution; format: cell-based; conditions: for MIC: Staphylococcus aureus, ATCC43300, S. aureus ATCC 43300, read-out: Minimum inhibitory concentration (MIC)
Method: as §1

E. coli MTCC 1687 = test: MIC by micro broth dilution; format: cell-based; conditions: Escherichia coli, MTCC1687, read-out: Minimum inhibitory concentration (MIC)
Method: as §1

P. aeruginosa CCARM 2204 = test: MIC by micro broth dilution; format: cell-based; conditions: Pseudomonas aeruginosa, CCARM2204, read-out: Minimum inhibitory concentration (MIC)
Method: as §1

E. coli BAA 196 = test: MIC by micro broth dilution; format: cell-based; conditions: Escherichia coli, BAA196, read-out: Minimum inhibitory concentration (MIC)
Method: as §1

[1] = tested on: S. epidermidis ATCC 35984; test: MIC by micro broth dilution; format: cell-based; conditions: Staphylococcus epidermidis, ATCC35984, read-out: Minimum inhibitory concentration (MIC)
Method: as §1

E. aerogenes M2-1 = test: MIC by micro broth dilution; format: cell-based; conditions: Klebsiella aerogenes, M21, read-out: Minimum inhibitory concentration (MIC)
Method: as §1

K. pneumonia ATCC 13883 = test: MIC by micro broth dilution; format: cell-based; conditions: for MIC: Klebsiella pneumoniae, ATCC13883, K. pneumonia ATCC 13883, read-out: Minimum inhibitory concentration (MIC)
Method: as §1

E. faecium NCIM 5421 = test: MIC by micro broth dilution; format: cell-based; conditions: Enterococcus faecium, NCIM5421, read-out: Minimum inhibitory concentration (MIC)
Method: as §1

[2] = tested on: S. epidermidis ATCC 35984 biofilm; test: Biofilm disruption assay (MTT) with compounds and compound loaded beads; format: cell-based; conditions: for EC50: Staphylococcus epidermidis
Method: S. epidermidis ATCC 35984 was grown in Brain Heart Infusion Agar (BHIA) at 37° C. for 24 h. The loop full of bacterial culture was suspended in sterile water and matched the turbidity against 0.5 McFarland Standard (approximately 1.5×10^8), 100 μl of culture suspension was added into each well of the 96 well plate and plates were incubated at 37° C. for 48 h for biofilm formation. The biofilm formed in each well was washed twice with sterile water to remove the planktonic cells. Then biofilm was treated with 100 yl of BHI broth suspended with various concentrations of DART molecules, followed by incubation of the plates at 37° C. for 24 h. Subsequently the biofilm in the wells were stained with MTT reagent and the plates were incubated at 37° C. for 2 h. The precipitate formed in the wells was dissolved in 100 μl of dimethyl sulfoxide (DMSO) and the absorbance was measured at 600 nm in multi well plate reader to determine the minimum biofilm inhibitory concentration (MBIC). The MBIC was calculated by subtracting the absorbance value of each drug treated sample from that of 48 h growth control.

S. epidermidis S5-2 = test: Sequential ZIB (zone of inhibition) assay for PMMA beads; format: cell-based, Staphylococcus epidermidis; conditions: SmartSet HV impregnated beads
Method: S. epidermidis S5-2 cells were grown in Brain Heart Infusion Agar (BHIA) at 37° C. for 24 h. 100 μl of 0.5 McFarland equal bacterial suspension was spread on BHA plates. Drug loaded beads were placed above these plates. Plates were incubated at 37° C. for 24 h. Next day, zone of inhibition (ZOI) the beads were measured following which the beads were placed on fresh BHA plates with bacterial suspension spread and this experiment was continued up to seven days. The drug release pattern was determined by compiling and analyzing the ZOI data of beads on each ZOI cycle up to seven days.

MIC (S. aureus CCARM 3505) [mg/L] | MIC (P. aeruginosa CCARM 2161) [mg/L] | MIC (A. baumannii CCARM 12020) [mg/L] | MIC (E. aerogenes NCIM 5139) [mg/L] | MIC (P. aeruginosa ATCC 27853) [mg/L] | MIC (S. aureus MTCC 6908) [mg/L] | MIC (A. baumannii ATCC 1906) [mg/L] | MIC (A. baumannii CCARM 12001) [mg/L] | MIC (S. epidermidis S12-1) [mg/L] | MIC (S. aureus ATCC 43300) [mg/L] | MIC (E. coli MTCC 1687) [mg/L] | MIC (P. aeruginosa CCARM 2204) [mg/L] | MIC (E. coli BAA 196) [mg/L] | MIC [1] [mg/L] | MIC (E. aerogenes M2-1) [mg/L] | MIC (K. pneumonia ATCC 13883) [mg/L] | MIC (E. faecium NCIM 5421) [mg/L] | Structure (SMILES) | also measured
8 (≈ 15 µM) | > 16 | > 16 | 16 (≈ 30 µM) | 16 (≈ 30 µM) | 0.5 (≈ 0.937 µM) | 2 (≈ 3.75 µM) | > 16 | 4 (≈ 7.5 µM) | 0.06 (≈ 0.112 µM) | 4 (≈ 7.5 µM) | > 16 | 8 (≈ 15 µM) | 0.13 (≈ 0.244 µM) | 16 (≈ 30 µM) | 0.5 (≈ 0.937 µM) | – | CC1Sc2c(C(=O)O)c(=O)c3cc(F)c(N4CCN(C(=O)c5cccc(Br)n5)CC4)cc3n21 (stereo not drawn) [Compound 32, 7-(4-(6-Bromopicolinoyl)piperazin-1-yl)-6-fluoro-1-methyl-4-oxo-1H,4H-[1,3]thiazeto[3,2-a]-quinoline-3-carboxylic acid] | activity in words (K. pneumonia ATCC 13883; Klebsiella pneumonia (susceptible)): active
> 16 | – | > 16 | 1 (≈ 2.3 µM) | 4 (≈ 9.21 µM) | 8 (≈ 18.4 µM) | 16 (≈ 36.8 µM) | > 16 | > 16 | 4 (≈ 9.21 µM) | 0.5 (≈ 1.15 µM) | > 16 | > 16 | 4 (≈ 9.21 µM) | 1 (≈ 2.3 µM) | 0.12 (≈ 0.276 µM) | > 16 | CC1Sc2c(C(=O)O)c(=O)c3cc(F)c(N4CCN(C(=O)NC(=N)N)CC4)cc3n21 (stereo not drawn) [Compound 44, 7-(4-(Carbamimidoylcarbamoyl)piperazin-1-yl)-6-fluoro-1-methyl-4-oxo-1H,4H-[1,3]thiazeto[3,2-a]quinoline-3-carboxylic acid] | –
0.25 (≈ 0.479 µM) | > 16 | > 16 | – | > 16 | 0.25 (≈ 0.479 µM) | > 16 | > 16 | 0.5 (≈ 0.959 µM) | 0.5 (≈ 0.959 µM) | > 16 | > 16 | > 16 | 0.06 (≈ 0.115 µM) | – | > 16 | 0.06 (≈ 0.115 µM) | CC(=O)NC[C@H]1CN(c2ccc(N3CCN(CC(=O)Nc4ncc([N+](=O)[O-])s4)CC3)c(F)c2)C(=O)O1 [Compound 55, (S)-2-(4-(4-(5-(Acetamidomethyl)-2-oxooxazolidin-3-yl)-2-fluorophenyl)piperazin-1-yl)-N-(5-nitrothiazol-2-yl)acetamide] | fold better activity in comparison to commercial linezolid (S. aureus ATCC 43300; against MRSA): 8 fold; times more active than linezolid analogue (S. aureus ATCC 43300; against MRSA): 8 times; EC50 ([2]; ATCC35984, 48 h biofilm, 24 h treatment, read-out: Concentration of compounds (mg/ml) for 50% biofilm disruption): > 2 mg/mL
– | – | – | – | – | – | – | – | – | – | – | – | – | – | – | – | – | CN[C@H](CC(C)C)C(=O)N[C@H]1C(=O)N[C@@H](CC(N)=O)C(=O)N[C@H]2C(=O)N[C@H]3C(=O)N[C@H](C(=O)N[C@H](C(=O)O)c4cc(O)cc(O)c4-c4cc3ccc4O)[C@H](O)c3ccc(c(Cl)c3)Oc3cc2cc(c3O[C@@H]2O[C@H](CO)[C@@H](O)[C@H](O)[C@H]2O[C@H]2C[C@](C)(N)[C@H](O)[C@H](C)O2)Oc2ccc(cc2Cl)[C@H]1O [Vancomycin, reference compound] | Biofilm disruption ([2]; PMMA beads of 3 mm diameter): 40; EC50 ([2]; ATCC35984, read-out: Concentration of compounds (mg/ml) for 50% biofilm disruption): 0.02 to 0.03 mg/mL (≈ 13.8 to 20.7 µM); Sequential ZOI (S. epidermidis S5-2; Day-1): 1.4 cm; Sequential ZOI (S. epidermidis S5-2; Day-2): 1.2 cm; Sequential ZOI (S. epidermidis S5-2; Day-3): 0.7 cm; Sequential ZOI (S. epidermidis S5-2; Day-4): 0.7 cm; Sequential ZOI (S. epidermidis S5-2; Day-5): 0 cm; Sequential ZOI (S. epidermidis S5-2; Day-6): 0 cm; Sequential ZOI (S. epidermidis S5-2; Day-7): 0 cm
